Test results from patent publication US20240390660A1, “APPARATUS, SYSTEMS AND METHODS FOR TRANSDERMAL DRUG DELIVERY, PERMEABILITY ENHANCEMENT AND AUGMENTATION” (University of Iowa Research Foundation, priority 2021, published 2024).
Where a name gives a salt, the structure may show the parent alone.

How the values were obtained:
[1] = in vivo; cited from earlier work
[2] = In vivo pharmacokinetics studies, dMN + NLX-HCL gel with or without heating pod; parameters: species or system albino Hartley guinea pigs; conditions: for enhancement in plasma concentration achieved with heat (vs no heat): 1 dMN; for plasma concentration, 2 dMN vs 1 dMN: non-heated
Text: In Vivo Pharmacokinetics Studies. Preliminary in vivo data were collected in male (n=3) and female (n=2) albino Hartley guinea pigs (a common small animal model for dermal drug studies). All study procedures were IACUC approved. A crossover study design was used, dMN with and without use of heat (described in Table 5). The dorsal hair was clipped (not shaved) a day prior to studies. Either one or two dMN arrays (for a total of 100 or 200 dMNs total) were applied to the dorsal skin of the animal using gentle thumb pressure, and the backing of the dMN was removed.
The heat reaction was initiated by removing the protective tape cover. This was the same approach and conditions as used for the in vitro studies. […] Blood samples were collected at 0, 5, 10, 15, 30, 60, 75, 90, and 120 min. Plasma was separated from the blood immediately after collection and stored at −80° C. until analysis. A thermocouple probe in contact with the skin during the in vivo studies was used to record the skin temperature at the same timepoints as blood sampling.
The mixture was vortexed for 60 sec and centrifuged at 10,000 rpm for 15 min. The supernatant ethyl acetate layer was pipetted off and placed in a 5 mL glass tube under dry nitrogen to evaporate the organic layer. The dried residues were reconstituted with 100 μL 0.1% formic acid and analyzed using LC/MS.
Data Analysis. […] It is understood that when discussed herein, 1 dMN refers to a condition with a single, 100 microneedle array and 2 dMN refers to a condition with two arrays. All conditions were compared with and without the heating pod. […] For all analyses, p<0.05 was considered statistically significant.

Row | Compound | NLX population clearance [1] | enhancement in plasma concentration achieved with heat (vs no heat) ([2]; 5 min) | enhancement in plasma concentration achieved with heat (vs no heat) ([2]; 15 min) | enhancement in plasma concentration achieved with heat (vs no heat) ([2]; 30 min) | enhancement in plasma concentration achieved with heat (vs no heat) ([2]; 60 min) | AUC with heat compared to the same conditions without heat ([2]; 2 dMN, 0-5, 0-15, 0-30 and 0-60 min, p<0.05) | enhancement of plasma concentrations by applied heat ([2]; 2 dMN, 5 min) | enhancement of plasma concentrations by applied heat ([2]; 2 dMN, 15 min) | enhancement of plasma concentrations by applied heat ([2]; 2 dMN, 30 min) | enhancement of plasma concentrations by applied heat ([2]; 2 dMN, 60 min) | normalized plasma concentrations, heated vs dMN without heat ([2]; 2 or 1 dMN arrays) | normalized plasma concentrations, 1 vs 2 dMN ([2]; heated or not heated, at 5, 15, 30 and 60 min) | AUC 2 dMN vs 1 dMN ([2]; heated, all time ranges tested, p<0.05) | plasma concentration, 2 dMN vs 1 dMN ([2]; 5 min) | plasma concentration, 2 dMN vs 1 dMN ([2]; 15 min) | plasma concentration, 2 dMN vs 1 dMN ([2]; 30 min) | plasma concentration, 2 dMN vs 1 dMN ([2]; 60 min)
1 | C=CCN1CC[C@]23c4c5ccc(O)c4O[C@H]2C(=O)CC[C@@]3(O)[C@H]1C5 [NLX, naloxone] | 91 L/h | – | – | – | – | – | – | – | – | – | – | – | – | – | – | – | –
2 | C=CCN1CC[C@]23c4c5ccc(O)c4O[C@H]2C(=O)CC[C@@]3(O)[C@H]1C5 [NLX-HCL, naloxone hydrochloride] | – | 2.4 | 1.3 | 1.2 | 1.4 | significantly higher | 2.1 × | 2.2 × | 2.1 × | 1.8 × | not significantly higher | no statistically significant differences | significantly higher | 2.1 × | 1.6 × | 2.0 × | 2.3 ×
